From patent US20260144788A1, “COMPOUND FOR SHP2 PROTEIN DEGRADATION AND MEDICAL USES THEREOF” (UBIX THERAPEUTICS, INC., priority 2022, published 2026) come the findings set out here.

This experiment has as its target T1, SHP2 protein (Homo sapiens, UniProt Q06124).
T1 sequence (Q06124 1-593): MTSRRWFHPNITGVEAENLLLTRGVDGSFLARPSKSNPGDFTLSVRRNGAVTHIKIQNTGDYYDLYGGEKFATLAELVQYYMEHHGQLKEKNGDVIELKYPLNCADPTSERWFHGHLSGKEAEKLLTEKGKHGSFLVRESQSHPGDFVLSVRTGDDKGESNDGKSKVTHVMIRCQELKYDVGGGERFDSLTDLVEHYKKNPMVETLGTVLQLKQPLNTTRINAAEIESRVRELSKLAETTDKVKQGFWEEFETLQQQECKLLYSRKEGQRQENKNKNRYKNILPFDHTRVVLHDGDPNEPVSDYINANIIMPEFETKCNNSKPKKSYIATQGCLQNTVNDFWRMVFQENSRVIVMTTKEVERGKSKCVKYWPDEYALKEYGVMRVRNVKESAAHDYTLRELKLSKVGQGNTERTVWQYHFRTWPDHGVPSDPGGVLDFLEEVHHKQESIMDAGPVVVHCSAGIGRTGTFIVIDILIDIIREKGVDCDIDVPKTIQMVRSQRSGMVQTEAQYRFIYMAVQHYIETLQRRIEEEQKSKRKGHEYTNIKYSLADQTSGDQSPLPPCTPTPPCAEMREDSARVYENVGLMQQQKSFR
Nature of the experiment: Measurement of SHP2 protein degradation in NCI-H358 cells (western blotting). Format: cell-based. The arrangement: endogenous in cells; host or cells: NCI-H358. The conditions noted are these: harvested after 24 hours. The method, then:
H358 cells were treated with the synthesized Example compounds, and the amount of SHP2 protein present in the cells was measured using western blotting detection. The protocol for the experiment using H358 cells is as follows.
[Culture]H358 cells were resuspended in RPMI1640 with 25 mM HEPES (Hyclone, SH30255.01), 10% FBS (Hyclone, SV30207.02), 1% Penicillin-streptomycin (Welgene, LS 202-02) media, seeded at 3×10^5/mL in 12-well plates (1 mL each), and cultured for 24 hours.
[Compound treatment] Before compound treatment, the media was changed to 1 mL media, and then the 12-well plate was treated as follows. The 10 mM stock dissolved in DMSO was serially diluted 1/100 or 1/10 with the media, and the compound was treated to the cells at a final concentration of 0.001, 0.01, and 0.1 μM, and harvested after 24 hours. For the negative control group, DMSO diluted 1/1000 in the media was added (1 μL DMSO+999 μL media).
[Harvest]24 hours after compound treatment, each well was scraped with a cell lifter (SPL, 90040), pipetted with a 1 mL pipette, collected in a 1.5 mL microtube, and centrifuged (500 g, 5 min, 4° C.). The supernatant was removed, washed with PBS, and centrifuged again (500 g, 5 min, 4° C.). Afterwards, the supernatant was removed to prepare a pellet.
[Cell lysis and sample preparation] Lysis buffer was prepared as follows. RIPA buffer (Biosesang, RC2038-050-00)+0.5 mM PMSF (SIGMA, P7626)+1× Protease/Phosphatase Inhibitor (Cell signaling, 5872S) were added at 30 μL per tube, vortexed, and incubated on ice for 30 minutes. Afterwards, sonication was performed (10 sec pulse, 30 sec rest, 5 cycles, 70% amplification) and centrifugation was performed (15,000 g, 15 min, 4° C.), and only the supernatant was transferred to a microtube. A 96-well plate was diluted to 1/4 with 7.5 μL of RIPA buffer and 2.5 μL of sample, and 200 μL each was added after mixing A and B of the BCA Protein Assay Kit (iNtRON, 21071) in a ratio of 50:1. The plate was incubated at 37° C. for 30 minutes and left at room temperature for 10 minutes. After shaking for 10 seconds with a SYNERGY H1 microplate reader from BioTek, the absorbance was measured at 562 nm. The protein was quantified using the measured value to make a sample, which was then incubated at 70° C. for 10 minutes. The sample buffer used here was a mixture of NuPAGE or Bolt 4× sample buffer (Invitrogen) and each 10× sample reducing agent depending on the gel to be used, and RIPA buffer was used for protein dilution.
[Western blotting detection] Equal amounts of samples were loaded onto NuPAGE or Bolt Bis-tris 4-12% gradient gel and run (200 V, 35 min). This was transferred to […] NC membrane using Trans-blot Turbo (BIO-RAD) (1.3 A constant, 25 V limit, 15 min), and blocked with 5% skim milk/0.2% TBST for 45 min at room temperature. Anti-SHPTP2 Mouse (1:1,000 in 5% skim milk/0.2% TBST, size: 70 kDa, Santa cruz sc-7384) and Anti-GAPDH Rabbit (1:2,000 in 5% skim milk or 5% BSA/0.2% TBST, size: 37 kDa, CST #2118) were added and incubated overnight at 4° C. After washing three times with 0.2% TBST washing buffer for 5 minutes each, secondary antibodies Anti-Mouse IgG (1:5,000 in 5% skim milk/0.2% TBST, CST) and IRDye® 680RD Goat anti-Rabbit IgG Secondary Antibody (1:10,000 in 5% skim milk/0.2% TBST, LI-COR 926-68071) were added, and incubated on a rocker at room temperature for 45 minutes. The resultants were washed five times with 0.2% TBST washing buffer for 5 minutes each, and detected using LI-COR's Odyssey. GAPDH was detected with a 700 nm channel, and SHPTP2 was detected using SuperSignal West Pico PLUS Chemiluminescent Substrate.

`CC(=O)N[C@H](C(=O)N1C[C@H](O)C[C@H]1C(=O)NCc1ccc(-c2scnc2C)cc1OC1CCN(C(=O)C2CCN(c3cccc(Sc4cnc(N5CCC(C)(CN)CC5)c(CO)n4)c3Cl)CC2)CC1)C(C)(C)C` [Example 83, (2S,4R)-1-((S)-2-acetamido-3,3-dimethylbutanoyl)-N-(2-((1-(1-(3-((5-(4-(aminomethyl)-4-methylpiperidin-1-yl)-6-(hydroxymethyl)pyrazin-2-yl)thio)-2-chlorophenyl)piperidine-4-carbonyl)piperidin-4-yl)oxy)-4-(4-methylthiazol-5-yl)benzyl)-4-hydroxypyrrolidine-2-carboxamide]: the SHP2% degradation was 97.8% (0.01 μM) and 99.7% (0.1 μM).

On to `Cc1cnn(C(C(=O)N2C[C@H](O)C[C@H]2C(=O)NCc2ccc(-c3scnc3C)cc2OC2CCN(C(=O)C3CCN(c4nccc(Sc5cnc(N6CCC(C)(CN)CC6)cn5)c4Cl)CC3)CC2)C(C)C)c1` (stereo partly drawn) [Example 99, (2S,4R)—N-(2-((1-(1-(4-((5-(4-(aminomethyl)-4-methylpiperidin-1-yl)pyrazin-2-yl)thio)-3-chloropyridin-2-yl)piperidine-4-carbonyl)piperidin-4-yl)oxy)-4-(4-methylthiazol-5-yl)benzyl)-4-hydroxy-1-(3-methyl-2-(4-methyl-1H-pyrazol-1-yl)butanoyl)pyrrolidine-2-carboxamide], for which the SHP2% degradation is reported as −4.8% (0.01 μM) and 91.5% (0.1 μM).

For the compound `CC(=O)N[C@H](C(=O)N1C[C@H](O)C[C@H]1C(=O)NCc1ccc(-c2scnc2C)cc1O[C@H]1CC[C@H](C(=O)N2CCC(N3CCOc4c(Sc5cnc(N6CCC(C)(CN)CC6)cn5)cccc43)CC2)CC1)C(C)(C)C` [Example 35, (2S,4R)-1-((S)-2-acetamido-3,3-dimethylbutanoyl)-N-(2-(((1r,4S)-4-(4-(8-((5-(4-(aminomethyl)-4-methylpiperidin-1-yl)pyrazin-2-yl)thio)-2,3-dihydro-4H-benzo[b][1,4]oxazin-4-yl)piperidine-1-carbonyl)cyclohexyl)oxy)-4-(4-methylthiazol-5-yl)benzyl)-4-hydroxypyrrolidine-2-carboxamide], the SHP2% degradation is, setting by setting: (0.01 μM) 66.8%; (0.1 μM) 97.7%.

As to `CC(=O)N[C@H](C(=O)N1C[C@H](O)C[C@H]1C(=O)NCc1ccc(-c2scnc2C)cc1O[C@H]1CC[C@H](C(=O)N2CCC(c3cccc(Sc4cnc(N5CCC(C)(CN)CC5)cn4)c3Cl)CC2)CC1)C(C)(C)C` [Example 46, (2S,4R)-1-((S)-2-acetamido-3,3-dimethylbutanoyl)-N-(2-(((1r,4S)-4-(4-(3-((5-(4-(aminomethyl)-4-methylpiperidin-1-yl)pyrazin-2-yl)thio)-2-chlorophenyl)piperidine-1-carbonyl)cyclohexyl)oxy)-4-(4-methylthiazol-5-yl)benzyl)-4-hydroxypyrrolidine-2-carboxamide], the SHP2% degradation is, setting by setting: (0.01 μM) 33.8%; (0.1 μM) 93.2%.

Regarding `Cc1cn([C@H](C(=O)N2C[C@H](O)C[C@H]2C(=O)NCc2ccc(C#N)cc2OC2CCN(C(=O)C3CCN(c4nccc(Sc5cnc(N6CCC7(CC6)CO[C@@H](C)[C@H]7N)c(CO)n5)c4Cl)CC3)CC2)C(C)C)nn1` [Example 113, (2S,4R)—N-(2-((1-(1-(4-((5-((3S,4S)-4-amino-3-methyl-2-oxa-8-azaspiro[4.5]decan-8-yl)-6-(hydroxymethyl)pyrazin-2-yl)thio)-3-chloropyridin-2-yl)piperidine-4-carbonyl)piperidin-4-yl)oxy)-4-cyanobenzyl)-4-hydroxy-1-((S)-3-methyl-2-(4-methyl-1H-1,2,3-triazol-1-yl)butanoyl)pyrrolidine-2-carboxamide], the SHP2% degradation was 96.2% (0.01 μM) and 99.8% (0.1 μM).

For the compound `CC(=O)N[C@H](C(=O)N1C[C@H](O)C[C@H]1C(=O)NCc1ccc(-c2scnc2C)cc1O[C@H]1CC[C@H](C(=O)N2CC(Nc3nccc(Sc4cnc(N5CCC(C)(CN)CC5)c(CO)n4)c3Cl)C2)CC1)C(C)(C)C` [Example 44, (2S,4R)-1-((S)-2-acetamido-3,3-dimethylbutanoyl)-N-(2-(((1r,4S)-4-(3-((4-((5-(4-(aminomethyl)-4-methylpiperidin-1-yl)-6-(hydroxymethyl)pyrazin-2-yl)thio)-3-chloropyridin-2-yl)amino)azetidine-1-carbonyl)cyclohexyl)oxy)-4-(4-methylthiazol-5-yl)benzyl)-4-hydroxypyrrolidine-2-carboxamide], the SHP2% degradation came out at 88.5% (0.01 μM) and 99.1% (0.1 μM).

As for `CC(=O)N[C@H](C(=O)N1C[C@H](O)C[C@H]1C(=O)NCc1ccc(-c2scnc2C)cc1OC1CCN(C(=O)C2CCN(c3nccc(Sc4cnc(N5CCC6(CC5)CO[C@@H](C)[C@H]6N)cn4)c3Cl)CC2)CC1)C(C)(C)C` [Example 77, (2S,4R)-1-((S)-2-acetamido-3,3-dimethylbutanoyl)-N-(2-((1-(1-(4-((5-((3S,4S)-4-amino-3-methyl-2-oxa-8-azaspiro[4.5]decan-8-yl)pyrazin-2-yl)thio)-3-chloropyridin-2-yl)piperidine-4-carbonyl)piperidin-4-yl)oxy)-4-(4-methylthiazol-5-yl)benzyl)-4-hydroxypyrrolidine-2-carboxamide], the SHP2% degradation reads like this: (0.01 μM) 94.4%; (0.1 μM) 98.0%.

For `CC(=O)N[C@H](C(=O)N1C[C@H](O)C[C@H]1C(=O)NCc1ccc(-c2scnc2C)cc1OC1CCN(C(=O)C2CCN(c3nccc(Sc4cnc(N5CCC(C)(N)CC5)cn4)c3Cl)CC2)CC1)C(C)(C)C` [Example 76, (2S,4R)-1-((S)-2-acetamido-3,3-dimethylbutanoyl)-N-(2-((1-(1-(4-((5-(4-amino-4-methylpiperidin-1-yl)pyrazin-2-yl)thio)-3-chloropyridin-2-yl)piperidine-4-carbonyl)piperidin-4-yl)oxy)-4-(4-methylthiazol-5-yl)benzyl)-4-hydroxypyrrolidine-2-carboxamide], the SHP2% degradation worked out at 90.0% (0.01 μM) and 98.7% (0.1 μM).
